Measured values reported in publication PMC10557102 (Pharmacology Research & Perspectives, 2023).
pIC50: −log10 of the molar value.

What was measured:
[1] = Plasma pharmacokinetics of nivasorexant 100 mg b.i.d. in healthy subjects; details: for unbound peak concentration: corrected for molecular weight and f u,p 0.01
[2] = molecular target: T1, CYP2C8 (Homo sapiens, UniProt P10632); assay: Time-dependent; assay type: in vitro ADME; details: 30 min pre‐incubation with/without NADPH; paclitaxel 6α‐hydroxylation
T1 sequence (P10632 1-490): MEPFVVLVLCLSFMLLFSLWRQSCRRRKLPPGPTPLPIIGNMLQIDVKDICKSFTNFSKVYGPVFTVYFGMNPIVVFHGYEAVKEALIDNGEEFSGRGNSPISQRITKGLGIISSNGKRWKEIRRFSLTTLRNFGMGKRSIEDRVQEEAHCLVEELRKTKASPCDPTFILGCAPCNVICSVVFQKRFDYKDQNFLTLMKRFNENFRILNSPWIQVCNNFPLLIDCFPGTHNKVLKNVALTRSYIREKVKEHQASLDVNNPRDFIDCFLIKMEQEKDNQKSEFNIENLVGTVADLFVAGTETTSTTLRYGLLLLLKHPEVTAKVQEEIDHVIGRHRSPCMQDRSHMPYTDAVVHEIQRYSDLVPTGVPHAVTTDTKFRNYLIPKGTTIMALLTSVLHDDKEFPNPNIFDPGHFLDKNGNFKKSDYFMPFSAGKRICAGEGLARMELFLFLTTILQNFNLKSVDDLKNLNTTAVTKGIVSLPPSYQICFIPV

[3] = system: human OX1R; details: OX1R vs OX2R; cited from earlier work
[4] = molecular target: T2, CYP3A4 (Homo sapiens, UniProt P08684); details: cited from earlier work
[5] = molecular target: T3, CYP2C19 (Homo sapiens, UniProt P33261); assay: biochemical; assay type: in vitro ADME
[6] = molecular target: T4, CYP2D6 (Homo sapiens, UniProt P10635); assay: Competitive; assay type: in vitro ADME
[7] = molecular target: T5, CYP1A2 (Homo sapiens, UniProt P05177); assay: Competitive; assay type: in vitro ADME
T5 sequence (P05177 1-516): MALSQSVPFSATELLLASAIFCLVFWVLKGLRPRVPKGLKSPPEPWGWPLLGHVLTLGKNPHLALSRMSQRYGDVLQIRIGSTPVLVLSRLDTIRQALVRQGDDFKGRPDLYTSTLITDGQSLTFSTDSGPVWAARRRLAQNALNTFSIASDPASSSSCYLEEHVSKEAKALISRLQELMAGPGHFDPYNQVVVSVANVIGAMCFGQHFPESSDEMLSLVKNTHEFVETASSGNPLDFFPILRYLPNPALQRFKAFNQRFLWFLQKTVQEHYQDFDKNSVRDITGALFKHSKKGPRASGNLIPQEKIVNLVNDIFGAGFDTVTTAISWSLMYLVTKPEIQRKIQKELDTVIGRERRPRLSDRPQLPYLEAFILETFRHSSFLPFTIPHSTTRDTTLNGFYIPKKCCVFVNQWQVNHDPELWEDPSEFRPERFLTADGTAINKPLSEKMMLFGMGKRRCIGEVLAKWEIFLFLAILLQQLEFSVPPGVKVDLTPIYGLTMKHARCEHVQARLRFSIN

[8] = system: CYP2C9; assay: Time-dependent; assay type: in vitro ADME, human; details: 30 min pre‐incubation with/without NADPH; diclofenac 4′‐hydroxylation
[9] = molecular target: T2, CYP3A4; details: in man; cited from earlier work
[10] = molecular target: T3, CYP2C19; assay: in vitro; assay type: in vitro ADME
[11] = molecular target: T4, CYP2D6; assay: Time-dependent; assay type: in vitro ADME; details: 30 min pre‐incubation with/without NADPH; dextromethorphan N‐demethylation
[12] = molecular target: T6, CYP2A6 (Homo sapiens, UniProt P11509); assay: Time-dependent; assay type: in vitro ADME; details: 30 min pre‐incubation with/without NADPH; coumarin 7‐hydroxylation
T6 sequence (P11509 1-494): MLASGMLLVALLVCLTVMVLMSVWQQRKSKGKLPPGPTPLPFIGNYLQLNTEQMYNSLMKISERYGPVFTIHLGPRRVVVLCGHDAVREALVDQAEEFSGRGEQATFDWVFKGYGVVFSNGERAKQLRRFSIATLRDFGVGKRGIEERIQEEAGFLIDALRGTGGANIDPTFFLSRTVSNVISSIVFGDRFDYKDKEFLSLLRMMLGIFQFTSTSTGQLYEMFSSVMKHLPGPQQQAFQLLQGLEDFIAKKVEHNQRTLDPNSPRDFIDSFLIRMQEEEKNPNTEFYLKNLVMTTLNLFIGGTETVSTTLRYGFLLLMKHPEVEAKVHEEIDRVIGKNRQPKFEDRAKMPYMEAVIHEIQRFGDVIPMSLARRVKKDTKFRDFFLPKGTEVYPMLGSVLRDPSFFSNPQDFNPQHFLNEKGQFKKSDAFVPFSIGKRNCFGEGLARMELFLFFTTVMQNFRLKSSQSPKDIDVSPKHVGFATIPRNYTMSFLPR

[13] = system: CYP2C9

T4 sequence (P10635 whole entry): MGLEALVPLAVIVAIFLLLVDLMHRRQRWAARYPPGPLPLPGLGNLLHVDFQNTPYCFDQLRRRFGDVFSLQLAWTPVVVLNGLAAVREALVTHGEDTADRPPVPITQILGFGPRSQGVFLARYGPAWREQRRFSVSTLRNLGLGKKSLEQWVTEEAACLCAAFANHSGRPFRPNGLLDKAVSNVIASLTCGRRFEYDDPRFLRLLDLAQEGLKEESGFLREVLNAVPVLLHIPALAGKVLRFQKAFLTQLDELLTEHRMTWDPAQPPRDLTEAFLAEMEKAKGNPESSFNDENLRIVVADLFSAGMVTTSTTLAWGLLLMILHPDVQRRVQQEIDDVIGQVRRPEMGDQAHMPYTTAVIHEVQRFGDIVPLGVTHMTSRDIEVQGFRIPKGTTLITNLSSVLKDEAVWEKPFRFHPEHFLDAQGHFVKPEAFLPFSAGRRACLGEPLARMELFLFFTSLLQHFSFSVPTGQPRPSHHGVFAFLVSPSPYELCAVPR
T2 sequence (P08684 whole entry): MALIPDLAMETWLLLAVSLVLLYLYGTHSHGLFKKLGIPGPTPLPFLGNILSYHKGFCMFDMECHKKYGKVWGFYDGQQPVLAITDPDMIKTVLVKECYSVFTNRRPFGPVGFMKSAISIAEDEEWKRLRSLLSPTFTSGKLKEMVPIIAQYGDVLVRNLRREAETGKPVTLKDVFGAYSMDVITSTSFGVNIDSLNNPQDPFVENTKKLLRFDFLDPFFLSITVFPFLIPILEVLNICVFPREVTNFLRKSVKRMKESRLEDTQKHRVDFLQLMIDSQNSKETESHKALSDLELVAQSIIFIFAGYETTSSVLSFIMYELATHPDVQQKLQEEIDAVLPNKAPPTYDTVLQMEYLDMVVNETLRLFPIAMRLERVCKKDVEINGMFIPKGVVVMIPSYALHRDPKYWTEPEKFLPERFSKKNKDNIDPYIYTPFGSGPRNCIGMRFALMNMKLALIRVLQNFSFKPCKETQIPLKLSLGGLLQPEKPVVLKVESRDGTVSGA
T3 sequence (P33261 whole entry): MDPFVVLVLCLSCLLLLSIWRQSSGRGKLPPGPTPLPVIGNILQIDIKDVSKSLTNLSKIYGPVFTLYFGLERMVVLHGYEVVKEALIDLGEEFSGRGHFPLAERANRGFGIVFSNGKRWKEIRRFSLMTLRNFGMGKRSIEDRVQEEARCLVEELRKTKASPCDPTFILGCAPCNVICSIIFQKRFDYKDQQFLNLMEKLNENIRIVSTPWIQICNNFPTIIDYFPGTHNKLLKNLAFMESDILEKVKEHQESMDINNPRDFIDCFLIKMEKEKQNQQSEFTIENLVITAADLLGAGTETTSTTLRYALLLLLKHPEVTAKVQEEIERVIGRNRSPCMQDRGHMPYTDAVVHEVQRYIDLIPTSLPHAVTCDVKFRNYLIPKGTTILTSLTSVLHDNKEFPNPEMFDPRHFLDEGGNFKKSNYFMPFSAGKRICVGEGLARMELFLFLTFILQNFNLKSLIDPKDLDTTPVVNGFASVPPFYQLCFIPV

Compound: Cc1ccc(C(=O)N2CCOC[C@H]2Cc2cccc(-n3nccn3)c2)c(-n2nccn2)c1 [nivasorexant]
- time to steady‐state trough concentrations ([1]; 100 mg b.i.d.): 3 to 4 days
- accumulation index (AIX) ([1]; AUCτ Day 15 / AUCτ Day 8, 8 days of 100 mg b.i.d.): 1.8
- unbound peak concentration ([1]; Day 8): 16 nM
- unbound peak concentration ([1]; Day 15): 29 nM
- AUC ([1]; both, human, plasma, oral, AUCτ, Trt D, Day 15, repeated 100 mg b.i.d., geometric mean (95% CI)): 8560 ng·h/mL
- Cmax ([1]; both, human, plasma, oral, C max, Trt D, Day 15, repeated 100 mg b.i.d., steady state, geometric mean (95% CI)): 1250 ng/mL
- t max ([1]; both, human, plasma, oral, t max, Trt D, Day 15, repeated 100 mg b.i.d., median (range)): 2 h
- IC50 shift [2]: no effect and none
- higher potency at human OX1R than at human OX2R [3]: approximately 60 fold
- time to steady‐state conditions ([4]; 200 mg b.i.d. nivasorexant): 4 to 5 days
- CYP3A4 inhibitor classification ([4]; after b.i.d. administration of 200 mg for 10 days): moderate (≥ 2‐ to <5‐fold)
- pIC50 [5]: 5.80
- pIC50 [6]: < 4.00
- pIC50 [7]: < 4.00
- IC50 shift [8]: no effect and no pre‐incubation effect and none
- extent of microsomal metabolism dependent on CYP3A4 [9]: approximately 90%
- IC50 shift at 30 min ([10]; human, recombinant enzyme): 67
- K I (inhibition constant of the CYP enzyme inactivation) ([10]; recombinant CYP2C19): 4.2 µM
- k inact (rate of enzyme inactivation) ([10]; recombinant CYP2C19): 0.079 min⁻¹
- IC50 shift [11]: no effect and none
- IC50 shift [12]: none
- CYP2C9 inhibitor classification according to regulatory guidance ([13]; after 8 days / repeated 100 mg b.i.d., steady state): weak (≥1.25‐ to <2‐fold)
- perpetrator DDI potential with respect to CYP2C9 (in words) ([13]; initial administration on Day 8, 90% CIs of GMR within 0.8–1.25): lack of perpetrator DDI potential
